Tested on: isolation-reared male ddy mice
Assay: Aggressive behavior of isolation-reared (sociopsychological stress) mice
Type: in vivo
Details: six weeks after initiation of isolation-rearing, two mice in same cage for 20 minutes, vs solvent
Method: Conceivably, this phenomenon is attributed to the fact that rearing of experimental animals under conditions where social environmental change or social stimuli are absent imposes a kind of sociopsychological stress on the animals (“Mechanism of Sleep,” pp. 52-73 “Stress and Sleep,” Asakura Publishing Co., Ltd. (1997)). In Example 1, anti-stress effects of uridine and GABA (i.e., control) were evaluated through use of this phenomenon. Specifically, isolation-rearing of male ddy mice was initiated at four weeks old, to thereby impose sociopsychological stress (stress caused by isolation-rearing) on the mice. Thus, animal models for evaluation were prepared.
On the basis of this report, the following evaluation was carried out. Specifically, six weeks after initiation of isolation-rearing, two mice were placed in the same cage for 20 minutes, and the time during which aggressive behavior was observed was measured. The effect of uridine or GABA on prolongation of aggressive behavior was evaluated.
A test compound was suspended or dissolved in 0.5% aqueous carboxymethylcellulose solution, and the resultant suspension or solution was orally administered once a day, six days a week, until the end of the experiment.
Mice were divided into four groups. Mice of one group were group-reared and received a solvent. Mice of the other three groups were isolation-reared and received a solvent (100 mg/kg/day), uridine (100 mg/kg/day), and GABA (100 mg/kg/day), respectively. Observation of aggressive behavior was carried out in […] of mice in each group (n=9).
The experiment of Example 1 was repeated, except that the dose of uridine was changed to 10 mg/kg/day, and uridylic acid was administered in place of GABA at a dose of 1 g/kg/day.

[1] = 100 mg/kg/day oral, once a day six days a week

Row | Structure (SMILES) | time during which aggressive behavior was observed [1] | time during which aggressive behavior was observed (10 mg/kg/day oral (low-dose)) | time during which aggressive behavior was observed (1 g/kg/day oral)
1 | NCCCC(=O)O [GABA, γ-aminobutyric acid, reference compound] | significantly reduced | – | –
2 | O=c1ccn([C@@H]2O[C@H](CO)[C@@H](O)[C@H]2O)c(=O)[nH]1 [uridine] | significantly reduced | significantly reduced | –
3 | O=c1ccn([C@@H]2O[C@H](COP(=O)(O)O)[C@@H](O)[C@H]2O)c(=O)[nH]1 [uridylic acid] | – | – | significantly reduced

Reference: US8017594B2, “Agent against psychosocial stresses” (Yamasa Corporation, priority 2006, dated 2011)
